Assay results from patent US6630507B1, “Cannabinoids as antioxidants and neuroprotectants” (The United States of America as represented by the …, priority 1998, dated 2003).

Assays:
NMDA receptor = details: cited from earlier work
[1] = Cyclic voltametry (oxidation potentials); assay type: physicochemical; details: for oxidation (electron donation) potential by cyclic voltametry: scan +0 to 1.8 V, 100 mV per second, acetonitrile; for oxidation profile by cyclic voltametry: data not shown
Protocol: To investigate whether cannabinoids protect neurons against glutamate damage by reacting with ROS, the antioxidant properties of cannabidiol and other cannabinoids were assessed. Cyclic voltametry, a procedure that measures the ability of a compound to accept or donate electrons under a variable voltage potential, was used to measure the oxidation potentials of several natural and synthetic cannabinoids. These studies were performed with an EG&G Princeton Applied Research potentiostat/galvanostat (Model 273/PAR 270 software, NJ). The working electrode was a glassy carbon disk with a platinum counter electrode and silver/silver chloride reference. Tetraethylammonium chloride in acetonitrile (0.1 M) was used as an electrolyte. Cyclic voltametry scans were done from +0 to 1.8 V at scan rate of 100 mV per second. […] Anandamide, a cannabinoid receptor ligand without a cannabinoid like structure, was used as a non-responsive control. Each experiment was repeated twice with essentially the same results.

cannabinoid receptor = details: cited from earlier work
[2] = test system: neurons (AMPA/kainate receptor mediated toxicity); experiment: AMPA and kainate receptor mediated toxicity in cultured neurons (LDH release); assay type: cell-based, Wistar rat; details: for attenuation of glutamate toxicity, comparison of antioxidants: 100 μM glutamate, equimolar 5 μM antioxidant (FIG. 5B)
Protocol: (§1) Primary neuronal cultures were prepared according to the method of Ventra et al. (J. Neurochem. 66:1752-1761, 1996). Fetuses were extracted by Cesarian section from a 17 day pregnant Wistar rat, and the feral brains were placed into phosphate buffered saline. The cortices were then dissected out, cut into small pieces and incubated with papain for nine minutes at 37° C. After this time the tissue was dissociated by passage through a fire polished Pasteur pipette, and the resultant cell suspension separated by centrifugation over a gradient consisting of 10 mg/ml bovine serum albumin and 10 mg/ml ovomucoid (a trypsin inhibitor) in Earls buffered salt solution. The pellet was then re-suspended in high glucose, phenol red free Dulbeco's modified Eagles medium containing 10% fetal bovine serum, 2 mM glutamine, 100 IU penicillin, and 100 μg/ml streptomycin (DMEM). Cells were counted, tested for vitality using the trypan blue exclusion test and seeded onto poly-D-lysine coated 24 multiwell plates. After 96 hours, 10 μM fluoro-deoxyuridine and 10 μM uridine were added to block glial cell growth.
Astrocyte conditioned DMEM was used throughout the AMPA/kainate toxicity procedure and following glutamate exposure in the NMDAr mediated toxicity protocol. Media was conditioned by 24 hour treatment over a confluent layer of type I astrocytes, prepared from two day old Wistar rat pups. Cortices were dissected, cut into small pieces, and enzymatically digested with 0.25% trypsin. Tissue was then dissociated by passage through a fire polished Pasteur pipette and the cell suspension plated into untreated 75 cm^2 T-flasks. After 24 hours the media was replaced and unattached cells removed. Once astrocytes achieved confluence, cells were divided into four flasks. Media for experiments was conditioned by a 24 hour exposure to these astrocytes, after which time it was frozen at −20° C. until use. Astrocyte cultures were used to condition DMEM for no longer than two months.
To examine AMPA and kainate receptor mediated toxicity, neurons were cultured for 7-13 days, then exposed to 100 μM glutamate and 50 μM cyclothiazide (used to prevent AMPA receptor desensitization). […] Specific AMPA and kainate receptor ligands were also used to separately examine the effects of cannabinoids on AMPA and kainate receptor mediated events. Fluorowillardiine (1.5 μM) was the AMPA agonist and 4-methyl glutamate (10 μM) was the kainate agonist used to investigate receptor mediated toxicity. When specifically examining kainate receptor activity, cyclothiazide was replaced with 0.15 mg/ml Concanavalin-A.

[3] = Iron catalyzed dihydrorhodamine oxidation (Fenton reaction); details: 50 μM dihydrorhodamine, 300 μM t-butyl hydroperoxide, 0.5 μM iron, 5 minutes
[4] = test system: cultured neurons (NMDAr mediated toxicity); experiment: NMDA mediated toxicity in cultured neurons (LDH release); assay type: cell-based, Wistar rat; details: 0.5 μg/ml, administered both during and post ischemia (FIG. 8)
Protocol: as §1
To examine NMDAr mediated toxicity, cultured neurons (cultured for 14-18 days) were exposed to 250 μM glutamate for 10 minutes in a magnesium free saline solution. […]

[5] = J. Pharmacol. Sci. 60:1433-1457 (1971); cited from earlier work

## CCCCCCC(C)(C)c1cc(O)c2c(c1)OC(C)(C)[C@@H]1CC=C(CO)CC21 (single isomer, unassigned; (-)) [HU-211]
NMDA receptor
  activity at the NMDA receptor: retains NMDA receptor antagonist neuroprotective activity
[1]
  oxidation (electron donation) potential by cyclic voltametry: donated electrons at a similar potential as the antioxidant BHT
Cannabinoid receptor
  affinity to the cannabinoid receptors: low affinity

## CCCCC/C=C\C/C=C\C/C=C\C/C=C\CCCC(=O)NCCO [Anandamide, arachidonyl ethanolamide]
[1]
  oxidation (electron donation) potential by cyclic voltametry: did not undergo oxidation

## Cc1cc(C(C)(C)C)c(O)c(C(C)(C)C)c1 [BHT]
[2]
  attenuation of glutamate toxicity, comparison of antioxidants: attenuated glutamate toxicity
[3]
  prevention of dihydrorhodamine oxidation: prevented dihydrorhodamine oxidation

## CCCCC/C=C\C[C@H](O)/C=C/C=C\C/C=C\CCCC(=O)O [Compound 12-HETE, 12-(s)-hydroxy-eicosatetraenoic acid]
[4]
  protection of cortical neurons from NMDAr toxicity: best protection

## CCCCCCC(C)(C)c1cc(O)c2c(c1)OC(C)(C)[C@@H]1CC=C(CO)C[C@@H]21 [HU-210, 1,1 dimethylheptyl (DMH) homolog of [3R,4R]-7-hydroxy-Δ^6THC]
[5]
  side effects in subjects: severe side effects, including fatigue, thirst, headache, and hypotension
Cannabinoid receptor; U.S. Pat. No. 5,434,295
  cannabinomimetic activity relative to natural Δ^9 THC: two orders of magnitude greater

## CC(=O)Oc1cc(O[C@H](C)CCCc2ccccc2)cc2c1[C@@H]1C[C@H](O)CC[C@H]1[C@H](C)N2 [levanantrodol]
[1]
  oxidation profile by cyclic voltametry: oxidation profiles similar to cannabidiol and THC

## CCCCCCC(C)(C)c1cc(O)c2c(c1)OC(C)(C)C1CCC(=O)CC21 (stereo not shown) [nabilone]
[1]
  oxidation profile by cyclic voltametry: oxidation profiles similar to cannabidiol and THC

## Cc1c(C)c2c(c(C)c1O)CC[C@@](C)(CCC[C@H](C)CCC[C@H](C)CCCC(C)C)O2 [α-tocopherol]
[2]
  attenuation of glutamate toxicity, comparison of antioxidants: attenuated glutamate toxicity

## tetrahydrocannabinol [THC]
[1]
  oxidation (electron donation) potential by cyclic voltametry: donated electrons at a similar potential as the antioxidant BHT
[2]; 5 μM compound plus SR-141716A (FIG. 2B)
  neuroprotection in presence of cannabinoid receptor antagonist SR-141716A: Neither THC nor cannabidiol neuroprotection was affected
[2]; 100 μM Glu, 5 μM compound (FIG. 2A)
  neuroprotection in AMPA/kainate receptor toxicity assays: similarly protective
[3]
  prevention of dihydrorhodamine oxidation: prevented dihydrorhodamine oxidation
